Measured values: patent US20260207590A1, “CTPS1 INHIBITORS FOR USE IN THE TREATMENT OF CTPS2 DEFICIENT CANCER” (STEP PHARMA S.A.S., priority 2022, published 2026)

Key:
CTPS1 = biological target: T1, CTPS1 (Homo sapiens, UniProt P17812); settings: see e.g. WO2020083975 (CTPS-IA), WO2020245664 (CTPS-IB); cited from earlier work
T1 sequence (P17812 1-591): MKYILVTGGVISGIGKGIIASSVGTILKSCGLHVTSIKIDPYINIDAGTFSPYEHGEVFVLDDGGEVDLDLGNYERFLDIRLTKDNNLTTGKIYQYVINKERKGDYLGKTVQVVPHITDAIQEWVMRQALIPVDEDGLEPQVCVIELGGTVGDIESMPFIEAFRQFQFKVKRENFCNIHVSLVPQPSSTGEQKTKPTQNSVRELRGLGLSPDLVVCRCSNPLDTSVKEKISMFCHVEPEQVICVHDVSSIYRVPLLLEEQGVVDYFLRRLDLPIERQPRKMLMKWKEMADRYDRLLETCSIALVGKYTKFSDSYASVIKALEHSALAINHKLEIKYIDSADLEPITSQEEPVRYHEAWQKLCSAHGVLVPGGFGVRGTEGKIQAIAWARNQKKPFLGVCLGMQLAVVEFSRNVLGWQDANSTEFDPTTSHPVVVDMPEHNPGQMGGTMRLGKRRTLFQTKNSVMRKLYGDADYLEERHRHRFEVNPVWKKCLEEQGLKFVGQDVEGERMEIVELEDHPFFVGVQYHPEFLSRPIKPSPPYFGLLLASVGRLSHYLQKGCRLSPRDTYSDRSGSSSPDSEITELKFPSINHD

human cancer cell lines = assay: Human cancer cell line viability with CTPS-IA (CellTiter-Glo, 72 hours), IC50 correlated with CTPS1/CTPS2 RNA expression; type: cell-based; settings: all three cell line sets (19, 60, 103 lines); P-value>0.05 in all cases
From the text: CTPS2 expression levels were also found to correlate with IC50 values for CTPS-IA. […] A nonlinear regression model was used to calculate half maximal inhibitory concentration (IC50). CTPS1 and CTPS2 expression levels, measured by RNA abundance, were either generated by RNA sequencing or retrieved from the publicly available Cancer Cell Line Encyclopedia. In a set of 19 human cancer cell lines derived from haematological cancers, lower CTPS2 expression was associated with increased sensitivity to CTPS-IA (Pearson correlation r=0.50, P-value=0.0007). In a set of 60 human cancer cell lines covering common cancer types, lower CTPS2 expression was associated with increased sensitivity to CTPS-IA (Pearson correlation r=0.24, P-value=<0.0001). In an independent set of 103 human cancer cell lines covering common cancer types, lower CTPS2 expression was associated with increased sensitivity to CTPS-IA (Pearson correlation r=0.14, P-value=<0.0001).

Question: What does the source list for CCOc1cncc(-c2ccc(NC(=O)C3(c4ccnc(NS(=O)(=O)C5CC5)n4)CCOCC3)nc2)n1 [CTPS-IA, 4-(2-(cyclopropanesulfonamido)pyrimidin-4-yl)-N-(5-(6-ethoxypyrazin-2-yl)pyridin-2-yl)tetrahydro-2H-pyran-4-carboxamide]?
Answer: CTPS1 inhibition and selectivity (in words) (CTPS1): potent and selective inhibitor of CTPS1; Association of the level of CTPS1 expression with sensitivity to CTPS-IA (human cancer cell lines): not associated with sensitivity to CTPS-IA

Question: Which “CTPS1 inhibition and selectivity (in words)” value (CTPS1) does the source give for CCOc1cncc(-c2ccc(NC(=O)C3(c4ccnc(NS(=O)(=O)CC)n4)CCOCC3)nc2)n1 [CTPS-IB, N-(5-(6-ethoxypyrazin-2-yl)pyridin-2-yl)-4-(2-(ethylsulfonamido)pyrimidin-4-yl)tetrahydro-2H-pyran-4-carboxamide] here?
Answer: potent and selective inhibitor of CTPS1
